Results published in patent publication US11559517B2, “Promotion of epithelial repair” (Telethon Kids Institute, priority 2018, dated 2023).
Entries after “also recorded” stand apart in the source; their conditions may differ.

Legend:
Assay type in all cases: cell-based, human
[1] = tested on: pAEC from non-asthmatic children; assay: MTS cell viability assay, pAEC from non-asthmatic children
Experimental: (§1) Cell viability was assessed using a 3-[4,5-dimethylthiazol-2yl]-5-[3-carboxymethoxyphenyl]-2-[4-sulfophenyl]-2H-tetrazolium inner salt (MTS) assay (Promega).
Cell viability was assessed using a 3-[4,5-dimethylthiazol-2yl]-5-[3-carboxymethoxyphenyl]-2-[4-sulfophenyl]-2H-tetrazolium inner salt (MTS) assay (Promega, Madison, Wis., USA). […]

[2] = tested on: pAEC from asthmatic children; assay: MTS cell viability assay, pAEC from asthmatic children
Experimental: as §1
Cell viability was assessed using a 3-[4,5-dimethylthiazol-2yl]-5-[3-carboxymethoxyphenyl]-2-[4-sulfophenyl]-2H-tetrazolium inner salt (MTS) assay (Promega, Madison, Wis., USA). Once confluent, cell cultures were treated with 10 μM compound, DMSO vehicle (0.05% v/v) or untreated for 48 hours.

[3] = tested on: pAEC from asthmatic children; assay: Scratch wound repair assay (wound closure), pAEC from asthmatic children; details: for accelerated repair compared to DMSO vehicle: 10 μM, 48 hours treatment post wounding; for promotion of pAEC repair relative to celecoxib: screen at 10 μM, cohort not given
Experimental: (§2) Two in vitro scratch wound models were used. […] Wound closure was calculated through image analysis by the accompanying live-cell imaging system (Essen Bioscience, Ann Arbor, Mich., USA).
(§3) To assess in vitro wound repair kinetics, linear scratch wounds were created using a commercial monolayer wounding kit. Once confluent, cell cultures were placed in starvation media (BEGM™ without epidermal growth factor) for about 24 hours prior to wounding. At the time of wounding, cell cultures were treated with compound dilution (10 μM), DMSO vehicle (0.05% v/v) or untreated. Wound closure rates were calculated through image analysis by the accompanying live-cell imaging system (Essen Bioscience, Ann Arbor, Mich., USA).

[4] = tested on: pAEC from non-asthmatic children; assay: Scratch wound repair assay (wound closure), pAEC from non-asthmatic children; details: treated at time of scratch wounding; Wortmannin 0.01-10 μM, MK2206 0.01-5 μM
Experimental: as §2, §3

[5] = tested on: leading edge pAEC from non-asthmatic children; assay: Leading edge cell tracking after scratch wounding, pAEC from non-asthmatic children; details: Wortmannin 0.01-10 μM, MK2206 0.01-5 μM
Experimental: (§4) Manual Tracking, an ImageJ2 plugin publicly available was utilized for its capacity to manually track cells in two dimensions, the x and y planes. […] The selected cells were tracked over the first 12 h post wounding, where this procedure generated x and y coordinates for the position of the nucleus of each tracked cell at each time point. The x,y coordinates of the tracked cells were exported in a tab delimited format and all tracks were transformed to migrate up towards the y-axis. Graphical representation and analysis of the cell migration parameters was performed using the Chemotaxis and Migration Tool 2.0 (Ibidi®, Martinsried, Bayern, Germany). […] Migration parameters of cell tracks were then quantified including; (1) distance migrated (μm) which represented the displacement of a cell from the start to its endpoint, (2) velocity (μm/min), which is a function of displacement overtime, and (3) directionality (AU), which represents a measurement of the directness or straightness of a cell trajectory and was calculated as a ratio of the cell displacement over the accumulated distance migrated. […] Since directionality is not a direct measure of chemotaxis, the determined forward migration index (FMI) (AU) was then utilized to represent the efficiency of the leading edge cells to migrate towards the center of the wounded area. […]

[6] = tested on: Akt (serine residue 473); assay: In-Cell Western assay of Akt phosphorylation, pAEC from non-asthmatic children; details: concentration series (Wortmannin 0.01-10 μM, MK2206 0.01-5 μM); 12 h and 48 h post treatment
Experimental: (§5) Cells were plated at 1.2×10^5 cells/cm^2 onto 96-well plates precoated with fibronectin ([…]) and maintained as described earlier. Briefly, following relevant treatments and controls, confluent cell monolayers were fixed with 10% (v/v) NBF for 20 minutes at room temperature and then either permeabilized with 0.1% (v/v) Triton X-100 or incubated with PBS for 25 minutes. Cells were blocked for 90 min at room temperature with the Odyssey® blocking buffer (PBS) (LI-COR Biosciences). Cells were then stained with rabbit anti-human integrin α5 (1:100; clone EPR7854, Abcam), mouse anti-human integrin β1 (1:1000; clone P5D2, Abcam), rabbit anti-human phospho-Akt (Ser473) (1:100; clone D9E, Abcam) or mouse anti-human total Akt (pan) (1:100; clone 40D4, Abcam) for 24 hours at 4° C. Antibody binding was determined using IRDye 800 CW-conjugated goat anti-rabbit IgG (1:800; 925-32211, LI-COR Biosciences) and goat anti-mouse IgG (1:800; 925-32210, LI-COR Biosciences), as well as DRAQ5 (1:10000; DR50200, BioStatus Limited) and Sapphire700 (1:1000; 928-40022, LI-COR Biosciences) for cell number normalization, for 1 hour at RT with gentle shaking in the dark. Specific antibody staining for protein expression was then immediately visualized and quantified using an infrared imaging system (LI-COR Biosciences).

[7] = tested on: integrin α5; assay: On-Cell Western assay of integrin α5 cell membrane expression, pAEC from non-asthmatic children
Experimental: as §5
After this, cells were washed in 1× phosphate-buffered saline (PBS) and incubated with IRDye-conjugated secondary antibody (1:800 goat anti-rabbit and goat anti-mouse IgG, LI-COR Biosciences, Lincoln, Nebr., USA) containing DRAQ5 (1:10000, BioStatus Limited, Shepshed, United Kingdom) and Sapphire700 (1:1000, LI-COR Biosciences, Lincoln, Nebr., USA) for 1 hour at RT with gentle shaking in a dark room. Cells were then washed for an additional five times in PBS. Specific antibody staining for protein expression was then immediately visualized using an infrared imaging system (LI-COR Biosciences, Lincoln, Nebr., USA

[8] = tested on: integrin β1; assay: On-Cell Western assay of integrin β1 cell membrane expression, pAEC from non-asthmatic children; details: MK2206; 12 h treatment
Experimental: (§6) Cells were plated at 1.2×10^5 cells/cm^2 onto 96-well plates precoated with fibronectin ([…]) and maintained as described earlier. Briefly, following relevant treatments and controls, confluent cell monolayers were fixed with 10% (v/v) NBF for 20 minutes at room temperature and then either permeabilized with 0.1% (v/v) Triton X-100 or incubated with PBS for 25 minutes. Cells were blocked for 90 min at room temperature with the Odyssey® blocking buffer (PBS) (LI-COR Biosciences). Cells were then stained with rabbit anti-human integrin α5 (1:100; clone EPR7854, Abcam), mouse anti-human integrin β1 (1:1000; clone P5D2, Abcam), rabbit anti-human phospho-Akt (Ser473) (1:100; clone D9E, Abcam) or mouse anti-human total Akt (pan) (1:100; clone 40D4, Abcam) for 24 hours at 4° C. Antibody binding was determined using IRDye 800 CW-conjugated goat anti-rabbit IgG (1:800; 925-32211, LI-COR Biosciences) and goat anti-mouse IgG (1:800; 925-32210, LI-COR Biosciences), as well as DRAQ5 (1:10000; DR50200, BioStatus Limited) and Sapphire700 (1:1000; 928-40022, LI-COR Biosciences) for cell number normalization, for 1 hour at RT with gentle shaking in the dark. Specific antibody staining for protein expression was then immediately visualized and quantified using an infrared imaging system (LI-COR Biosciences). […]

[9] = tested on: leading edge pAEC from asthmatic children; assay: Leading edge cell tracking after scratch wounding, pAEC from asthmatic children; details: SC79 0.5-20 μM
Experimental: as §4

[10] = tested on: Akt (serine residue 473); assay: In-Cell Western assay of Akt phosphorylation, pAEC from asthmatic children; details: SC79 0.5-20 μM; 12 h and 48 h post treatment
Experimental: as §5

[11] = tested on: integrin α5; assay: On-Cell Western assay of integrin α5 cell membrane expression, pAEC from asthmatic children; details: 0.5, 2 and 5 μM SC79; 12 h and 48 h
Experimental: as §6

[12] = tested on: integrin β1; assay: On-Cell Western assay of integrin β1 cell membrane expression, pAEC from asthmatic children; details: 0.5, 2 and 5 μM SC79; 12 h and 48 h
Experimental: as §6

[13] = tested on: pAEC from asthmatic children; assay: Scratch wound repair assay (wound closure), pAEC from asthmatic children; details: SC79 0.5-20 μM at time of scratch wounding
[14] = 10 μM, 48 hours, change of less than or equal to 20% relative to DMSO vehicle considered non-cytotoxic
[15] = 0.01, 0.1, 1 μM (all concentrations bar the highest)

For `Cc1ccc(-c2cc(C(F)(F)F)nn2-c2ccc(S(N)(=O)=O)cc2)cc1` [Compound C3, Celecoxib], the “cell viability (MTS)” value [1, 14] was “did not display any change in cell viability”, the “cell viability (MTS)” value [2, 14] was “did not display any change in cell viability” and the “cell viability (MTS)” value ([2]; 0.01, 0.1, 1, 10 μM, listed as Celecoxib) was “did not cause significant cytotoxicity”. For the same compound, the “cell viability (MTS)” value ([2]; 0.01, 0.1, 1, 10 μM, listed as celecoxib) was “not cytotoxic”.

`CN1C(C(=O)Nc2ccccn2)=C(O)c2ccccc2S1(=O)=O` [Compound C13, Piroxicam] was tested, and the “accelerated repair compared to DMSO vehicle” value [3] was “no improvement”.

`O=C(O)c1cc(/N=N/c2ccc(S(=O)(=O)Nc3ccccn3)cc2)ccc1O` [Compound C15, Sulfasalazine] was tested, and the “accelerated repair compared to DMSO vehicle” value [3] was “no improvement”.

With `CC(=NNc1ccc(S(N)(=O)=O)cc1)c1ccc(C)cc1` [Compound C11] the “accelerated repair compared to DMSO vehicle” value [3] was “no improvement”.

In the case of `Cc1ccc(-c2cc(C(F)(F)F)n[nH]2)cc1` [Compound C19, 3-Trifluoromethy1-5-(p-tolyl)-1H-pyrazole], the “accelerated repair compared to DMSO vehicle” value [3] was “no improvement”.

For `NC1(c2ccc(-c3nc4ccn5c(=O)[nH]nc5c4cc3-c3ccccc3)cc2)CCC1` [MK2206], the “cell viability (MTS)” value [1, 15] was “did not cause significant cytotoxicity”, the “wound closure rates (effect in words)” value [4] was “significant inhibition; also recorded: concentration-dependent reduction in wound closure rates” and the “leading edge cell migration (distance migrated, velocity, directionality, yFMI)” value [5] was “significant inhibition; also recorded: inhibited distance migrated, velocity, directionality and centrality (yFMI)”. The “activation/phosphorylation of Akt (Ser473)” value [6] was “significant inhibition; also recorded: inhibited activation of Akt”, the “integrin α5 cell membrane expression” value ([7]; 1 μM MK2206, 48 h) was “significant inhibition; also recorded: Significant reduction” and the “integrin α5 cell membrane expression” value ([7]; MK2206, concentration-dependent, 12 h treatment) was “concentration-dependent inhibition; also recorded: significant reduction of integrin α5”. The “integrin α5 cell membrane expression” value ([7]; lower concentrations of MK2206 (below 1 μM), 48 h) was “not with the lower concentrations” and the “integrin β1 cell membrane expression” value [8] was “did not have a significant effect”.

In the case of `NS(=O)(=O)c1ccccc1` [Compound C2, Benzenesulfonamide], the “accelerated repair compared to DMSO vehicle” value [3] was “no improvement”.

For `Cc1ccc(C)c(-c2cc(C(F)(F)F)nn2-c2ccc(S(N)(=O)=O)cc2)c1` [dimethyl-Celecoxib], the “cell viability (MTS)” value ([2]; 0.01, 0.1, 1, 10 μM) was “did not cause significant cytotoxicity” and the “cell viability (MTS)” value ([2]; 0.01, 0.1, 1, 10 μM, listed as dimethyl-celecoxib) was “not cytotoxic”.

For `COC[C@H]1OC(=O)c2coc3c2[C@@]1(C)C1=C(C3=O)[C@@H]2CCC(=O)[C@@]2(C)C[C@H]1OC(C)=O` [Wortmannin], the “cell viability (MTS)” value ([1]; 10 μM Wortmannin) was “significant loss of viability” and the “cell viability (MTS)” value [1, 15] was “did not have a significant cytotoxic effect; also recorded: did not cause significant cytotoxicity”.

For `Nc1ccc(S(N)(=O)=O)cc1` [Compound C17, Sulfanilamide], the “accelerated repair compared to DMSO vehicle” value [3] was “no improvement”.

With `CCOC(=O)C1=C(N)Oc2ccc(Cl)cc2C1C(C#N)C(=O)OCC` (stereo not drawn) [SC79, 2-Amino-6-chloro-α-cyano-3-(ethoxycarbonyl)-4H-1-benzopyran-4-acetic acid ethyl ester] the “cell viability (MTS)” value ([2]; SC79 0.5, 2, 5, 10, 20 μM) was “did not alter cell viability; also recorded: did not cause significant cytotoxicity”, the “leading edge cell migration (distance migrated, velocity, directionality, yFMI)” value [9] was “stimulated leading edge cell migration; also recorded: stimulated distance migrated, velocity, directionality and centrality (yFMI)” and the “phosphorylation of Akt (Ser473)” value [10] was “augment Akt signaling in a concentration-dependent manner; also recorded: resulted in phosphorylation of Akt”. For the same compound, the “integrin α5 cell membrane expression” value [11] was “restored their integrin α5 and β1 expression to equivalent levels to those of non-asthmatic children; also recorded: Significant activation”, the “integrin β1 cell membrane expression” value [12] was “restored their integrin α5 and β1 expression to equivalent levels to those of non-asthmatic children; also recorded: Significant activation” and the “wound closure rates (effect in words)” value [13] was “significantly enhanced wound closure; also recorded: concentration-dependent increase in wound closure rates”.

With `Cc1ccc(C)c(-c2cc(C(F)(F)F)nn2-c2ccc(S(N)(=O)=O)cc2)c1` [Compound C6, 2,5-Dimethyl-Celecoxib] the “promotion of pAEC repair relative to celecoxib” value [3] was “comparable efficacy”.

`CS(=O)(=O)c1ccc(-n2nc(C(F)(F)F)cc2-c2ccc(F)cc2)cc1` [Compound C22, 5-(4-fluorophenyl)-1-[4-(methylsulfonyl)phenyl]-3-(trifluoromethyl)-1H-pyrazole] was tested, and the “promotion of pAEC repair relative to celecoxib” value [3] was “to a greater degree than celecoxib”.
